Drawing on patent publication US8278072B1, “Method for synthesis of sialylated products using reversible sialylation” (Health Research, Inc., priority 2007, dated 2012), this text covers EC50 for 1 compound.

pEC50: −log10 of the molar value.

The target of the assay is T1, ST3Gal-II (Rattus norvegicus, UniProt Q11205).
T1 construct: purchased Calbiochem
T1 sequence (Q11205 1-350): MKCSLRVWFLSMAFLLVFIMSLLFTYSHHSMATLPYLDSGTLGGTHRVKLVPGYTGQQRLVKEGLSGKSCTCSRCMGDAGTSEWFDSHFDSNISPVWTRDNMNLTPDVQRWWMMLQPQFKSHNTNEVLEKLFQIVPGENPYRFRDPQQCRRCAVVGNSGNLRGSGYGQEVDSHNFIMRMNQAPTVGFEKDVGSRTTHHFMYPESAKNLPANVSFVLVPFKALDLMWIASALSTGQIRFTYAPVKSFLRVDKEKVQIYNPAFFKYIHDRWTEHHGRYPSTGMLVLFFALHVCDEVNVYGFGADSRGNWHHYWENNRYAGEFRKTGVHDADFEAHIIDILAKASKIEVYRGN
Kind of assay: Reverse sialylation equilibrium constant (Keq) and 5′-CMP dose dependence. Conditions: donor 0.15 mM [2], 0.15 mU ST3Gal-II, 2 hours; read-out: concentration of 5′-CMP that mediated half-maximal transfer of [9-3H]NeuAc. The assay is classed as biochemical. The protocol: FIG. 2. Equilibrium constant. a. Reversible sialyltransferase activity at increasing concentration of 5′-CMP. 0.15 mM of donor [9-^3H]NeuAcα2,3Galβ1,3(4-FGlcNAcβ1,6)GalNAcα-O-Bn [9-^3H[2]] was incubated with varying concentrations of 5′-CMP and 0.15 mU ST3Gal-II under conditions described in FIG. 1 for 2 hours. The consumption of the [9-^3H]NeuAc benzyl glycoside donor was measured by subjecting the incubation mixture to Sep-Pak C18 fractionation, which binds the donor and not CMP-[9-^3H]NeuAc. The reaction proceeded to ½ the maximum extent at 80 μM 5′-CMP. b. Equilibrium constant Keq (=0.35) calculated for data in panel a. c. Varying concentrations of 5′-CMP was sialylated with ST3Gal-II (2.0 mU) using either 0.15 mM (panel c) or 1.5 mM (not shown) sialyl donor [9-^3H]NeuAcα2,3Galβ1,3GalNAcβ1,3Galα-O-Me [9-^3H[3]] for 4 hours. The product CMP-[9-^3H]NeuAc and the unused [9-^3H[3]] were separated and quantitated by Dowex-1-Formate method. d. Equilibrium constant, Keq=98.9. Diamonds denote data from 1.5 mM runs while data from 0.15 mM runs are depicted by squares.
a) Biogel P2 chromatography: A Biogel P2 column (Fine Mesh; 1.0×116.0 cm) was used with 0.1 M pyridine acetate (pH5.4) as the eluent at room temperature. […] Fractions of 1.0 ml were collected. The bound material was then eluted with 0.5M GlcNAc or 0.2M Gal in the same buffer. […] Calculation of equilibrium constant, Keq: Equilibrium constant was calculated for selected reversible bimolecular reactions that are denoted by:
[formula] Here, [9-^3H]D* denotes the radiolabeled donor and D′ is the donor after removal of sialic acid. Similarly, A and [9-^3H]A* denote the acceptor before and after incorporation of NeuAc. In each run, unreacted [9-^3H]D* and product [9-^3H] A* are measured using radioactivity measurements. The equilibrium constant (Keq=kreverse/kforward, dimensionless units) are then determined using the following equation, where terms in square brackets denote concentrations:
[formula] [D0] and [A0] are initial donor and acceptor concentrations. A plot of [D*]/([D0]−[D*]) versus [A*]/([A0]−[A*]) yields Keq from slope data. Keq<1 implies that the forward reaction is favored and the reaction proceeds to the right side to form [9-^3H]A* efficiently. Liquid Chromatography Coupled with Tandem Mass Spectrometry (LC/MS/MS)
Similar results were observed upon increasing concentrations of 5′-CMP when [9-^3H]NeuAcα2,3Galβ1,3(4-FGlcNAcβ1,6) GalNAcα-O-Bn [9-^3H[2]] was donor (FIG. 2a, b). The concentration of 5′-CMP that mediated half-maximal transfer of [9-^3H]NeuAc was 80 μM. The bimolecular equilibrium constant (Keq) for this reaction was 0.35 (dimensionless units, Table I). Indeed, the Keq varied depending on the donor and it was 98.9 when the donor was based on the globo glycolipid, [9-^3H]NeuAcα2,3Galβ1,3GalNAcβ1,3 Gala-O-Me [[9-^3H] [3]] (FIG. 2c, d). Upon comparing and [3], it is apparent that reverse sialylation proceeds more effectively in the case of [2]. To further confirm the above estimates of Keq for core-2 based structures, we also calculated this parameter for our previously published data where [9-^3H]CMP-NeuAc was donor and mucin core-2 tetrasaccharide Galβ1,4GlcNAcβ1,6(Galβ1,3)GalNAcα-O-Bn was acceptor. In this case, Keq measured with respect to the rate of mucin core-2 sialylation was 5.55 (data not shown), which translates to a reverse sialylation Keq of 0.18.

With `Nc1ccn([C@@H]2O[C@H](COP(=O)(O)O)[C@@H](O)[C@H]2O)c(=O)n1` [5′-CMP, Cytidine 5′-monophosphate], the pEC50 was 4.10.
